Laboratory results as given in US20080058330A1, “Compounds and Combinations Thereof for Inhibiting Beta-Amyloid Production and Methods of Use Thereof” (Roskamp Research LLC, priority 2006, published 2008).

Structure (SMILES) | melting point [°C]
CC1=C(C(=O)OC(C)(C)C)C(c2cccc(Cl)c2)C(C(=O)OC(C)(C)C)=C(C)N1 [Example 21, Di-tert-butyl 4-(3-chlorophenyl)-1,4-dihydro-2,6-dimethylpyridine-3,5-dicarboxylate] | 189.5 to 190.5
CCOC(=O)C1=C(C)NC(C)=C(C(=O)OCC)C1c1ccc(Cl)cc1 [Example 22, Diethyl 4-(4-chlorophenyl)-1,4-dihydro-2,6-dimethylpyridine-3,5-dicarboxylate] | 151 to 152
CC1=C(C(=O)OC(C)(C)C)C(c2ccc(Cl)cc2)C(C(=O)OC(C)(C)C)=C(C)N1 [Example 23, Di-tert-butyl 4-(4-chlorophenyl)-1,4-dihydro-2,6-dimethylpyridine-3,5-dicarboxylate] | 191.5 to 192.5
CC1=C(C(=O)OC(C)(C)C)C(c2cccc(Br)c2)C(C(=O)OC(C)(C)C)=C(C)N1 [Example 25, Di-tert-butyl 4-(3-bromophenyl)-1,4-dihydro-2,6-dimethylpyridine-3,5-dicarboxylate] | 195 to 196
CC1=C(C(=O)OC(C)(C)C)C(c2ccc(Br)cc2)C(C(=O)OC(C)(C)C)=C(C)N1 [Example 27, Di-tert-butyl 4-(4-bromophenyl)-1,4-dihydro-2,6-dimethylpyridine-3,5-dicarboxylate] | 206 to 207
CCOC(=O)C1=C(C)NC(C)=C(C(=O)OCC)C1c1cccc(Cl)c1Cl [Example 31, Diethyl 4-(2,3-dichlorophenyl)-1,4-dihydro-2,6-dimethylpyridine-3,5-dicarboxylate] | 125 to 126
CC1=C(C(=O)OC(C)(C)C)C(c2cccc(Cl)c2Cl)C(C(=O)OC(C)(C)C)=C(C)N1 [Example 32, Di-tert-butyl 4-(2,3-dichlorophenyl)-I14-dihydro-2,6-dimethylpyridine-3,5-dicarboxylate] | 144 to 145
CCOC(=O)C1=C(C)NC(C)=C(C(=O)OCC)C1c1cc(Cl)ccc1Cl [Example 34, Diethyl 4-(2,5-dichlorophenyl)-1,4-dihydro-2,6-dimethylpyridine-3,5-dicarboxylate] | 166.5 to 167.5
CC1=C(C(=O)OC(C)(C)C)C(c2cc(Cl)ccc2Cl)C(C(=O)OC(C)(C)C)=C(C)N1 [Example 35, Di-tert-butyl 4-(2,5-dichlorophenyl)-1,4-dihydro-2,6-dimethylpyridine-3,5-dicarboxylate] | 181 to 183
CCOC(=O)C1=C(C)NC(C)=C(C(=O)OCC)C1c1c(Cl)cccc1Cl [Example 36, Diethyl 4-(2,6-dichlorophenyl)-1,4-dihydro-2,6-dimethylpyridine-3,5-dicarboxylate] | 134 to 135
CCOC(=O)C1=C(C)NC(C)=C(C(=O)OCC)C1c1cc(Cl)cc(Cl)c1 [Example 37, Diethyl 4-(3,5-dichlorophenyl)-1,4-dihydro-2,6-dimethylpyridine-3,5-dicarboxylate] | 102 to 104
CCOC(=O)C1=C(C)NC(C)=C(C(=O)OCC)C1c1cccc(F)c1F [Example 38, Diethyl 4-(2,3-difluorophenyl)-1,4-dihydro-2,6-dimethylpyridine-3,5-dicarboxylate] | 161 to 162
CC1=C(C(=O)OC(C)(C)C)C(c2cccc(F)c2F)C(C(=O)OC(C)(C)C)=C(C)N1 [Example 39, Di-tert-butyl 4-(2,3-difluorophenyl)-1,4-dihydro-2,6-dimethylpyridine-3,5-dicarboxylate] | 192 to 194
C=CCOC(=O)C1=C(C)NC(C)=C(C(=O)OCC=C)C1c1ccc(Br)cc1 [Example 40, Diallyl 4-(4-bromophenyl)-1,4-dihydro-2,6-dimethylpyridine-3,5-dicarboxylate] | 130 to 131
CCOC(=O)C1=C(C)NC(C)=C(C(=O)OCC)C1c1ccc(F)c(Br)c1 [Example 41, Diethyl 4-(3-bromo-4-fluorophenyl)-1,4-dihydro-2,6-dimethylpyridine-3,5-dicarboxylate] | 118 to 119
CC1=C(C(=O)OC(C)(C)C)C(c2ccc(F)c(Br)c2)C(C(=O)OC(C)(C)C)=C(C)N1 [Example 42, Di-tert-butyl 4-(3-bromo-4-fluorophenyl)-1,4-dihydro-2,6-dimethylpyridine-3,5-dicarboxylate] | 171 to 172
CC1=C(C(=O)OC(C)(C)C)C(c2ccc(Br)cc2F)C(C(=O)OC(C)(C)C)=C(C)N1 [Example 44, Di-tert-butyl 4-(4-bromo-2-fluorophenyl)-1,4-dihydro-2,6-dimethylpyridine-3,5-dicarboxylate] | 187 to 188
COCCOC(=O)C1=C(C)NC(C)=C(C(=O)OCCOC)C1c1cccc(Br)c1 [Example 45, Bis(2-methoxyethyl) 4-(3-bromophenyl)-1,4-dihydro-2,6-dimethylpyridine-3,5-dicarboxylate] | 124.5 to 125.5
COCCOC(=O)C1=C(C)NC(C)=C(C(=O)OCCOC)C1c1ccc(Br)cc1 [Example 46, Bis(2-methoxyethyl) 4-(4-bromophenyl)-1,4-dihydro-2,6-dimethylpyridine-3,5-dicarboxylate] | 116 to 117
CC1=C(C(=O)OC(C)(C)C)C(c2cc(Br)ccc2F)C(C(=O)OC(C)(C)C)=C(C)N1 [Example 48, Di-tert-butyl 4-(5-bromo-2-fluorophenyl)-1,4-dihydro-2,6-dimethylpyridine-3,5-dicarboxylate] | 173 to 174
CC1=C(C(=O)OC(C)(C)C)C(c2cccc(F)c2)C(C(=O)OC(C)(C)C)=C(C)N1 [Example 50, Di-tert-butyl 4-(3-fluorophenyl)-1,4-dihydro-2,6-dimethylpyridine-3,5-dicarboxylate] | 178 to 179
CCOC(=O)C1=C(C)NC(C)=C(C(=O)OCC)C1c1ccc(F)cc1 [Example 51, Diethyl 4-(4-fluorophenyl)-1,4-dihydro-2,6-dimethylpyridine-3,5-dicarboxylate] | 150 to 151
CC1=C(C(=O)OC(C)(C)C)C(c2ccc(F)cc2)C(C(=O)OC(C)(C)C)=C(C)N1 [Example 52, Di-tert-butyl 4-(4-fluorophenyl)-1,4-dihydro-2,6-dimethylpyridine-3,5-dicarboxylate] | 149 to 150
COCC1=C(C(=O)OC)C(c2ccc(Br)cc2)C(C(=O)OC)=C(COC)N1 [Example 53, Dimethyl 4-(4-bromophenyl)-1,4-dihydro-2,6-bis(methoxymethyl)pyridine-3,5-dicarboxylate] | 162 to 163

Second part, the molecule after the results:

melting point [°C] | Structure (SMILES)
120 to 121 | COCCOC(=O)C1=C(C)NC(C)=C(C(=O)OCCOC)C1c1ccccc1Cl [Example 10, Bis(2-methoxyethyl) 4-(2-chlorophenyl)-1,4-dihydro-2,6-dimethylpyridine-3,5-dicarboxylate]
144 to 145 | CCOC(=O)C1=C(C)NC(C)=C(C(=O)OCC)C1c1ccccc1Br [Example 11, Diethyl 4-(2-bromophenyl)-1,4-dihydro-2,6-dimethylpyridine-3,5-dicarboxylate]
201 to 202 | CC1=C(C(=O)OC(C)(C)C)C(c2ccccc2F)C(C(=O)OC(C)(C)C)=C(C)N1 [Example 13, Di-tert-butyl 4-(2-fluorophenyl)-1,4-dihydro-2,6-dimethylpyridine-3,5-dicarboxylate]
162 to 164 | CC1=C(C(=O)OC(C)(C)C)C(c2ccccc2Br)C(C(=O)OC(C)(C)C)=C(C)N1 [Example 14, Di-tert-butyl 4-(2-bromophenyl)-1,4-dihydro-2,6-dimethylpyridine-3,5-dicarboxylate]
120 to 121 | CCOC(=O)C1=C(C)NC(C)=C(C(=O)OCC)C1c1ccccc1[N+](=O)[O-] [Example 14, Diethyl 1,4-dihydro-2,6-dimethyl-4-(2-nitrophenyl)pyridine-3,5-dicarboxylate]
159 to 161 | CC1=C(C(=O)OC(C)(C)C)C(c2ccccc2[N+](=O)[O-])C(C(=O)OC(C)(C)C)=C(C)N1 [Example 15, Di-tert-butyl 1,4-dihydro-2,6-dimethyl-4-(2-nitrophenyl)pyridine-3,5-dicarboxylate]
98 to 99 | C=CCOC(=O)C1=C(C)NC(C)=C(C(=O)OCC=C)C1c1ccccc1Cl [Example 16, Diallyl 4-(2-chlorophenyl)-1,4-dihydro-2,6-dimethylpyridine-3,5-dicarboxylate]
137 to 138 | COCC1=C(C(=O)OC)C(c2ccccc2Cl)C(C(=O)OC)=C(COC)N1 [Example 17, Dimethyl 4-(2-chlorophenyl)-1,4-dihydro-2,6-bis(methoxymethyl)pyridine-3,5-dicarboxylate]
173 to 174.5 | CCOC(=O)C1=C(C)NC(C)=C(C(=O)OCC)C1c1ccccc1I [Example 18, Diethyl 1,4-dihydro-4-(2-iodophenyl)-2,6-dimethylpyridine-3,5-dicarboxylate]
164 to 165 | COC(=O)C1=C(C)NC(C)=C(C(=O)OC)C1c1ccccc1Br [Example 19, Dimethyl 4-(2-bromophenyl)-1,4-dihydro-2,6-dimethylpyridine-3,5-dicarboxylate]
125 to 126 | CCOC(=O)C1=C(C)NC(C)=C(C(=O)OCC)C1c1cccc(Br)c1 [Example 24, Diethyl 4-(3-bromophenyl)-1,4-dihydro-2,6-dimethylpyridine-3,5-dicarboxylate]
184 to 185 | CC1=C(C(=O)OC(C)(C)C)C(c2ccccc2I)C(C(=O)OC(C)(C)C)=C(C)N1 [Example 28, Di-tert-butyl 1,4-dihydro-4-(2-iodophenyl)-2,6-dimethylpyridine-3,5-dicarboxylate]
154 to 155 | CCOC(=O)C1=C(C)NC(C)=C(C(=O)OCC)C1c1ccc(Br)cc1F [Example 43, Diethyl 4-(4-bromo-2-fluorophenyl)-1,4-dihydro-2,6-dimethylpyridine-3,5-dicarboxylate]
118 to 119 | CCOC(=O)C1=C(C)NC(C)=C(C(=O)OCC)C1c1cc(Br)ccc1F [Example 47, Diethyl 4-(5-bromo-2-fluorophenyl)-1,4-dihydro-2,6-dimethylpyridine-3,5-dicarboxylate]
